Measured values reported in patent publication US20260215419A1, “PLANT EXTRACTS WITH HERBICIDAL ACTIVITY” (Agrematch Ltd., priority 2023, published 2026).

Key:
Assay type in all cases: in vivo
Amaranthus palmeri = experiment: Post-emergence herbicidal activity, visual damage score 0-100; conditions: Table 4; 7-day old plants; 0.8 ml per 80 cm^2 pot; scored 13 days after application; average of five pots; synthetic Rhein 1 gram/liter (1000 g/ha) in 2% MIPA, 2% DASH, 0.25% Genapol
Experimental: (§1) Damage assessment: Herbicidal activity was assessed and scored by visual inspection of the plants in comparison to plants treated with the formulation alone (with no plant extract) as control. Activity score is in the range of 0 to 100, where 0 represents no herbicidal activity like control plants and 100 represents the maximal herbicidal activity (i.e., total death of the plant).
(§2) The herbicidal activity of Rhein-containing extracts was determined by post-emergence application on 8-day old plants (weeds) of the Amaranthus palmeri and Setaria viridis species that were grown at 16 hours/8 hours day/night cycles at 30° C./25° C., respectively. Leaf stage was typically 4-6 for A. palmeri and 3-4 for S. viridis. […]
(§3) Herbicidal activity was assessed and scored 4 days after application by visual inspection of the plants in comparison to plants treated with the control solution alone (with no active ingredient). […]
(§4) Herbicidal activity of extract sample A-1b was determined by post-emergence application on 8-day old plants (weeds) of the A. palmeri and S. viridis species and 11-day old plants (weeds) of Abutilon theophrasti, Solanum nigrum, Echinochloa colonum, Phalaris canarinesis and Lolium multiflorum that were grown at 16 hours/8 hours day/night cycles at 30° C./25° C., respectively. […]
(§5) Herbicidal activity was assessed and scored 13 days after application, as described hereinabove. […]

Chenopodium quinoa = experiment: Post-emergence weed panel, visual damage score 0-100; conditions: Table 4; 8-day old plants; 0.8 ml per 80 cm^2 pot; scored 13 days after application; average of five pots; synthetic Rhein 1 gram/liter (1000 g/ha)
Experimental: Damage assessment: Herbicidal activity was assessed and scored by visual inspection of the plants in comparison to plants treated with the formulation alone (with no plant extract) as control. Activity score is in the range of 0 to 100, where 0 represents no herbicidal activity like control plants and 100 represents the maximal herbicidal activity (i.e., total death of the plant). Herbicidal activity was determined by post-emergence application on 7-day old plants (weeds) of the A. palmeri and S. viridis species and 8-day old plants (weeds) of S. nigrum, and C. quinoa that were grown at 16 hours/8 hours day/night cycles at 30° C./25° C., respectively. Leaf stage was typically 4-6 for A. palmeri, 3-4 for S. viridis, and 4 for S. nigrum and C. quinoa. Each treatment contained five 80 cm^2 pots, each containing about 4 plants of one of the tested weed species. Each pot was sprayed with 0.8 ml of either: • 1. the exemplary extract sample A-1b, in which plant source A powder was mixed with solution 1b for 1.5 hours before filtration, or • 2. 1 gram/liter synthetic Rhein molecule dissolved in 2% MIPA, 2% DASH and 0.25% Genapol solution, which is equivalent to 1000 g/ha. Herbicidal activity was assessed and scored 13 days after application, as described hereinabove.

Setaria viridis = experiment: Post-emergence herbicidal activity, visual damage score 0-100; conditions: Table 4; 7-day old plants; 0.8 ml per 80 cm^2 pot; scored 13 days after application; average of five pots; synthetic Rhein 1 gram/liter (1000 g/ha)
Experimental: as §1, §2, §3, §4, §5

Solanum nigrum = experiment: Post-emergence weed panel, visual damage score 0-100; conditions: Table 4; 8-day old plants; 0.8 ml per 80 cm^2 pot; scored 13 days after application; average of five pots; synthetic Rhein 1 gram/liter (1000 g/ha)
Experimental: Damage assessment: Herbicidal activity was assessed and scored by visual inspection of the plants in comparison to plants treated with the formulation alone (with no plant extract) as control. Activity score is in the range of 0 to 100, where 0 represents no herbicidal activity like control plants and 100 represents the maximal herbicidal activity (i.e., total death of the plant). Herbicidal activity of extract sample A-1b was determined by post-emergence application on 8-day old plants (weeds) of the A. palmeri and S. viridis species and 11-day old plants (weeds) of Abutilon theophrasti, Solanum nigrum, Echinochloa colonum, Phalaris canarinesis and Lolium multiflorum that were grown at 16 hours/8 hours day/night cycles at 30° C./25° C., respectively. Leaf stage was typically 4-6 for A. palmeri, 3-4 for S. viridis, 3 for A. theophrasti and S. nigrum, 4 for E. colonum, and 2 for P. canarinesis and L. multiflorum. […] Herbicidal activity was assessed and scored 3 days after application, as described hereinabove. Herbicidal activity was determined by post-emergence application on 7-day old plants (weeds) of the A. palmeri and S. viridis species and 8-day old plants (weeds) of S. nigrum, and C. quinoa that were grown at 16 hours/8 hours day/night cycles at 30° C./25° C., respectively. […] Herbicidal activity was assessed and scored 13 days after application, as described hereinabove.

SMILES: O=C(O)c1cc(O)c2c(c1)C(=O)c1cccc(O)c1C2=O [Synthetic Rhein, Rhein]
- Score (Amaranthus palmeri) (Amaranthus palmeri): 100
- Score (Chenopodium quinoa) (Chenopodium quinoa): 100
- Score (Setaria viridis) (Setaria viridis): 97
- Score (Solanum nigrum) (Solanum nigrum): 100
